Structures can show the parent of a compound that is named as a salt.
target: MCH receptor (Homo sapiens, UniProt Q99705); experiment: High Throughput Functional Screening: FLIPR/FDSS6000 intracellular Ca2+ assay, antagonist activity against MCH; format: cell-based; set-up: class (percent of control at 10^−7 M or IC50): scale not given here; conditions: FLIPR/FDSS, [Ca2+]i evoked by 50 nM MCH; class by percent of control at 10^−7 M or IC50
Source text: Subsequently, a functional based assay was used to confirm the lead hits, referred to as FLIPR™ (the Fluorometric Imaging Plate Reader) and FDSS6000™ (Functional Drug Screening System). This assay utilized a non-endogenous, constitutively active version of the MCH receptor.
The FLIPR and FDSS assays are able to detect intracellular Ca^2+ concentration in cells, which can be utilized to assess receptor activation and determine whether a candidate compound is an, for example, antagonist, inverse agonist or agonist to a Gq-coupled receptor. The concentration of free Ca^2+ in the cytosol of any cell is extremely low, whereas its concentration in the extracellular fluid and endoplasmic reticulum (ER) is very high. Thus, there is a large gradient tending to drive Ca^2+ into the cytosol across both the plasma membrane and ER. The FLIPR™ and FDSS6000™ systems (Molecular Devices Corporation, HAMAMATSU Photonics K.K.) are designed to perform functional cell-based assays, such as the measurement of intracellular calcium for high-throughput screening. The measurement of fluorescent is associated with calcium release upon activation of the Gq-coupled receptors.
Fluorometric Imaging Plate Reader system was used to allow for rapid, kinetic measurements of intracellular fluorescence in 96 well microplates (or 384 well microplates). Simultaneous measurements of fluorescence in all wells can be made by FLIPR or FDSS6000™ every second with high sensitivity and precision. These systems are ideal for measuring cell-based functional assays such as monitoring the intracellular calcium fluxes that occur within seconds after activation of the Gq coupled receptor.
Briefly, the cells are seeded into 96 well at 5.5×10^4 cells/well with complete culture media (Dulbecco's Modified Eagle Medium with 10% fetal bovine serum, 2 mM L-glutamine, 1 mM sodium pyruvate and 0.5 mg/mL G418, pH 7.4) for the assay next day. On the day of assay, the media is removed and the cells are incubated with 100 μl of loading buffer (4 μM Fluo4-AM in complete culture media containing 2.5 mM Probenicid, 0.5 mg/ml and 0.2% bovine serum albumin) in 5% CO2 incubator at 37° C. for 1 hr. The loading buffer is removed, and the cells are washed with wash buffer (Hank's Balanced Salt Solution containing 2.5 mM Probenicid, 20 mM HEPES, 0.5 mg/mL and 0.2% bovine serum albumin, pH 7.4). One hundred fifty μl of wash buffer containing various concentrations of test compound is added to the cells, and the cells are incubated in 5% CO2 incubator at 37° C. for 30 min. Fifty μl of wash buffer containing various concentration of MCH are added to each well, and transient changes in [Ca^2+]i evoked by MCH are monitored using the FLIPR™ or FDSS in 96 well plates at Ex. 488 nm and Em. 530 nm for 290 second. When antagonist activity of compound is tested, 50 nM of MCH is used.
Use of FLIPR™ and FDSS6000™ can be accomplished by following manufacturer's instruction (Molecular Device Corporation and HAMAMATSU Photonics K.K.).

Row | SMILES | class (percent of control at 10^−7 M or IC50)
1 | Cc1ccnc(N[C@H]2CC[C@@H](NC(=O)c3ccc(F)c(Cl)c3)CC2)c1.Cl [Example 35, 3-Chloro-4-fluoro-N-{cis-4-[(4-methylpyridin-2-yl)amino]cyclohexyl}benzamide hydrochloride] | 2
2 | Cc1cnc(N[C@H]2CC[C@@H](NC(=O)c3ccc(F)c(Cl)c3)CC2)cc1N(C)CCc1ccccc1.Cl [Example 49, 3-Chloro-4-fluoro-N-[cis-4-({5-methyl-4-[methyl(2-phenylethyl)amino]pyridin-2-yl}amino)cyclohexyl]benzamide hydrochloride] | 2

Other lines, results leading:

Row | class (percent of control at 10^−7 M or IC50) | SMILES
3 | 2 | Cc1cc(C)c(N[C@H]2CC[C@@H](NC(=O)c3ccc(F)c(Cl)c3)CC2)nc1C.Cl [Example 53, 3-Chloro-4-fluoro-N-{cis-4-[(3,5,6-trimethylpyridin-2-yl)amino]cyclohexyl}benzamide hydrochloride]
4 | 2 | CCCN(CCC)S(=O)(=O)c1ccc(C(=O)N[C@H]2CC[C@@H](Nc3cc(N(C)C)cc(C)n3)CC2)cc1 [Example 166, N-(cis-4-{[4-(dimethylamino)-6-methylpyridin-2-yl]amino}cyclohexyl)-4-[(dipropylamino)sulfonyl]benzamide]
5 | 2 | Cc1cc(N(C)C)cc(N[C@H]2CC[C@@H](NC(=O)Cc3cccc4ccccc34)CC2)n1 [Example 168, N-(cis-4-{[4-(dimethylamino)-6-methylpyridin-2-yl]amino}cyclohexyl)-2-(1-naphthyl)acetamide]
6 | 2 | Cc1cc(N(C)C)cc(N[C@H]2CC[C@@H](NC(=O)c3cccc(C(F)(F)F)c3)CC2)n1 [Example 177, N-(cis-4-{[4-(dimethylamino)-6-methylpyridin-2-yl]amino}cyclohexyl)-3-(trifluoromethyl)benzamide]
7 | 2 | Cc1cc(N(C)C)cc(N[C@H]2CC[C@@H](NC(=O)c3cccnc3Oc3ccccc3)CC2)n1 [Example 203, N-(cis-4-{[4-(dimethylamino)-6-methylpyridin-2-yl]amino}cyclohexyl)-2-phenoxynicotinamide]
8 | 2 | Cc1cc(N(C)C)cc(N[C@H]2CC[C@@H](NCCOc3ccc(Cl)cc3)CC2)n1 [Example 209, N-(cis-4-{[2-(4-chlorophenoxy)ethyl]amino}cyclohexyl)-N,N-6-trimethylpyridine-2,4-diamine]

same assay, conditions: FLIPR/FDSS, [Ca2+]i evoked by 50 nM MCH; class by percent of control at 10^−7 M or IC50; read-out: class (percent of control at 10^−7 M or IC50)

Row | SMILES | IC50 [nM]
9 | Cc1cc(N[C@H]2CC[C@@H](NC(=O)c3ccc(F)c(Cl)c3)CC2)nc2c1CCCC2 [Example 34, 3-Chloro-4-fluoro-N-{cis-4-[(4-methyl-5,6,7,8-tetrahydroquinolin-2-yl)amino]cyclohexyl}benzamide hydrochloride] | < 50
10 | CN(C)c1ccnc(N[C@H]2CC[C@@H](NC(=O)c3ccc(F)c(Cl)c3)CC2)c1 [Example 36, 3-Chloro-N-(cis-4-{[4-(dimethylamino)pyridin-2-yl]amino}cyclohexyl)-4-fluorobenzamide hydrochloride] | < 50
11 | CN(C)c1ccnc(N[C@H]2CC[C@@H](NC(=O)c3cc(F)c(F)c(F)c3)CC2)c1 [Example 37, N-(cis-4-{[4-(Dimethylamino)pyridin-2-yl]amino}cyclohexyl)-3,4,5-trifluorobenzamide hydrochloride] | < 50
12 | O=C(N[C@H]1CC[C@@H](Nc2ccc3c(n2)CCCC3)CC1)c1ccc(F)c(Cl)c1 [Example 39, 3-Chloro-4-fluoro-N-[cis-4-(5,6,7,8-tetrahydroquinolin-2-ylamino)cyclohexyl]benzamide hydrochloride] | < 50
13 | O=C(N[C@H]1CC[C@@H](Nc2ccc3c(n2)CCCC3)CC1)c1cc(F)c(F)c(F)c1 [Example 40, 3,4,5-Trifluoro-N-[cis-4-(5,6,7,8-tetrahydroquinolin-2-ylamino)cyclohexyl]benzamide hydrochloride] | < 50
14 | Cc1ccc(N[C@H]2CC[C@@H](NC(=O)c3ccc(F)c(Cl)c3)CC2)nc1C [Example 43, 3-Chloro-N-{cis-4-[(5,6-dimethylpyridin-2-yl)amino]cyclohexyl}-4-fluorobenzamide hydrochloride] | < 50
15 | Cc1cc(N[C@H]2CC[C@@H](NC(=O)c3ccc(F)c(Cl)c3)CC2)nc(C)c1C [Example 50, 3-Chloro-4-fluoro-N-{cis-4-[(4,5,6-trimethylpyridin-2-yl)amino]cyclohexyl}benzamide hydrochloride] | < 50
16 | Cc1cnc(N[C@H]2CC[C@@H](NC(=O)c3ccc(F)c(Cl)c3)CC2)cc1C [Example 51, 3-Chloro-N-{cis-4-[(4,5-dimethylpyridin-2-yl)amino]cyclohexyl}-4-fluorobenzamide hydrochloride] | < 50
17 | Cc1cc(C)nc(N[C@H]2CC[C@@H](NC(=O)c3ccc(F)c(Cl)c3)CC2)c1 [Example 52, 3-Chloro-N-{cis-4-[(4,6-dimethylpyridin-2-yl)amino]cyclohexyl}-4-fluorobenzamide hydrochloride] | < 50

Further lines, results first:

Row | IC50 [nM] | SMILES
18 | < 50 | Cc1cc(N(C)C)cc(N[C@H]2CC[C@@H](NC(=O)c3ccc4nonc4c3)CC2)n1 [Example 146, N-(cis-4-{[4-(dimethylamino)-6-methylpyridin-2-yl]amino}cyclohexyl)-2,1,3-benzoxadiazole-5-carboxamide]
19 | < 50 | Cc1cc(N(C)C)cc(N[C@H]2CC[C@@H](NC(=O)COc3ccc(Cl)cc3)CC2)n1 [Example 147, 2-(4-chlorophenoxy)-N-(cis-4-{[4-(dimethylamino)-6-methylpyridin-2-yl]amino}cyclohexyl)acetamide]
20 | < 50 | Cc1cc(N(C)C)cc(N[C@H]2CC[C@@H](NC(=O)c3ccc(F)c(F)c3)CC2)n1 [Example 171, N-(cis-4-{[4-(dimethylamino)-6-methylpyridin-2-yl]amino}cyclohexyl)-3,4-difluorobenzamide]
21 | < 50 | Cc1cc(N(C)C)cc(N[C@H]2CC[C@@H](NC(=O)c3ccc(Cl)cc3)CC2)n1 [Example 185, 4-chloro-N-(cis-4-{[4-(dimethylamino)-6-methylpyridin-2-yl]amino}cyclohexyl)benzamide]
22 | < 50 | Cc1cc(N(C)C)cc(N[C@H]2CC[C@@H](NC(=O)C3(c4ccc(Cl)cc4)CCCC3)CC2)n1 [Example 186, 1-(4-chlorophenyl)-N-(cis-4-{[4-(dimethylamino)-6-methylpyridin-2-yl]amino}cyclohexyl)cyclopentanecarboxamide]
23 | < 50 | Cc1cc(N(C)C)cc(N[C@H]2CC[C@@H](NC(=O)c3cccc([N+](=O)[O-])c3)CC2)n1 [Example 190, N-(cis-4-{[4-(dimethylamino)-6-methylpyridin-2-yl]amino}cyclohexyl)-3-nitrobenzamide]
24 | < 50 | COc1ccc(Oc2ccc([N+](=O)[O-])cc2C(=O)N[C@H]2CC[C@@H](Nc3cc(N(C)C)cc(C)n3)CC2)cc1 [Example 192, N-(cis-4-{[4-(dimethylamino)-6-methylpyridin-2-yl]amino}cyclohexyl)-2-(4-methoxyphenoxy)-5-nitrobenzamide]

— patent US20080090863A1, “Pyridine Derivatives and Their Use as Medicaments for Treating Diseases Related to Mch Receptor” (TAISHO PHARMACEUTICAL CO., LTD., priority 2004, published 2008)
